The results in this text go back to US9642861B2, “Methods of treating oral mucositis” (priority 2006, dated 2017).

The series can be described thus: ACT-03 (Example 2): weights and survival. The class given is in vivo, Syrian Golden Hamsters. Conditions: for Survival (animal status in score table): individual animal, by day 6. From the text: All animals were weighed daily and their survival recorded, in order to assess possible differences in animal weight among treatment groups as an indication for mucositis severity and/or possible toxicity resulting from the treatments.
All seventy-two (72) male Syrian Golden Hamsters were given an acute radiation dose of 40 Gy directed to their left buccal cheek pouch. This was accomplished by anesthetizing the animals and everting the left buccal pouch, while protecting the rest of the animal with a lead shield. Test materials were given either topically or by ip injection twice daily as detailed in Table 5. Mucositis was evaluated clinically starting on day 6, and continuing on alternate days until day 28. The study timeline is depicted in FIG. 7. Dose levels were determined based on the results of a previous acute toxicity study (data not published), and in the prior mucositis study of Example 1, shown in Table 5.
Male LVG Syrian Golden Hamsters (Charles River Laboratories), aged 5 to 6 weeks, with average body weight of […] at study commencement, were used. Animals were individually numbered using an ear punch and housed in small groups of approximately 8 animals per cage. Animals were acclimatized prior to study commencement. During this period of 3 days, the animals were observed daily in order to reject animals that presented in poor condition.
The significance of these differences was evaluated by calculating the mean area under the curve for the percentage weight gain for each animal and comparing the groups using a One-Way ANOVA test. There were significant differences between the vehicle control group and the group treated with M40403 at 30 mg/kg/dose once daily from day −1 to day 3 (P=0.039), he group treated with M40403 at 3 mg/kg/dose twice daily from day −1 to day 3 (P=0.040), the group treated with M40403 at 10 mg/kg/dose twice daily from day −1 to day 3 (0.018), the group treated with M40403 at 30 mg/kg/dose twice daily from day −1 to day 3 (P<0.001), the group treated with M40403 at 30 mg/kg/dose once daily from day 0 to day 3 (P=0.009) and the group treated with M40403 at 30 mg/kg/dose twice daily from day 0 to day 3 (P=0.002).

Each structure is given as a SMILES string.

With `[Cl-].[Cl-].[Mn+2].c1cc2nc(c1)CN[C@@H]1CCCC[C@H]1NCCN[C@@H]1CCCC[C@H]1NC2` [M40403], the “deaths during the study, all on the day of radiation (Day 0)” value is recorded as “Two” (30 mg/kg once daily day 0 to 3); “Two” (30 mg/kg once daily day −1 to 3); “One” (30 mg/kg once daily on day 0 and day 7 (so in the source)); “Two” (30 mg/kg twice daily day −1 to 3). Besides, for the setting “first study, group 9 (30 mg/kg/dose twice daily on day 0 and on day 7), animal 70, day 0”, the “survival status noted in Animal Weights table” value is “dead”. Also, the “Survival (animal status in score table)” value (group 2) is “dead”, the “Survival (animal status in score table)” value (group 5) is on record as “dead” and the “Survival (animal status in score table)” value (group 6) is listed as “dead”. For the same compound, the “toxicity based on observations of body weight” value (hamster, in vivo, ip) is listed as “appear to show some toxicity”. Besides, the “P, One-Way ANOVA on mean AUC of percentage weight gain v vehicle control” value (hamster, in vivo, ip, 3 mg/kg) was 0.040 and the “P, One-Way ANOVA on mean AUC of percentage weight gain v vehicle control” value (hamster, in vivo, ip, 10 mg/kg) was 0.018. For the same compound, the “average weight gain, % of starting weight during the study (day 28)” value reads like this: (hamster, in vivo, ip, 3 mg/kg) 59.3%; (hamster, in vivo, ip, 10 mg/kg) 56.2%. Further, the “statistically significant reduction in growth rate v control” value (hamster, in vivo, ip, 30 mg/kg) is “did not exhibit some statistically significant reductions in growth rate”. Moreover, the “Survival (animal recorded dead in weight table)” value (second study, group 6, animal 45 on day 0, animal 46 on day 1) is listed as “dead”.
